The assay deals with rat spinal dorsal root ganglion (DRG) neurons. Briefly: High potassium-induced rise in intracellular calcium concentration of rat DRG neurons (Cal-520 AM fluorescence imaging). Type of assay: cell-based. Particulars: compound 30 μmol/L; for inhibition at 30 µM: Rattus norvegicus, DRG neuron, vehicle group = 0%, read-out: Inhibition rate (%) of a rise in intracellular calcium concentration; for Inhibition of high potassium-induced rise in intracellular calcium concentration, in words: KCl 30 mmol/L, compared to vehicle treatment group, Table 5 experiment. An excerpt:
Example 4 Effect of the cyclic amine derivative (I) or a pharmacologically acceptable salt thereof on high potassium-induced rise in intracellular calcium concentration of rat spinal dorsal root ganglion (DRG) neurons:
The cyclic amine derivative (I) or a pharmacologically acceptable salt thereof was examined for its inhibitory effect on high potassium-induced rise in intracellular calcium concentration of DRG neurons.
The SD rats (4 to 6 weeks old, male; Charles River Laboratories Japan, Inc.) were anesthetized and euthanized by bloodletting from abdominal aorta. After incision of the dorsal part, the spinal column was excised and cooled in ice. The dorsal column was cut off, and the spinal cord was removed from the ventral side of the spinal column. Then, DRGs (L4 to L6) with nerve fibers were excised with tweezers. The excised DRGs were dipped in ice-cold Leibovitz's L-15 medium (Thermo Fisher Scientific), and the nerve fibers were removed under a stereoscopic microscope to separate DRG.
The separated DRGs were made fine slits with ophthalmic scissors, followed by incubation at 37° C. for 20 minutes with Collagenase A (Roche Molecular Systems). After centrifugation at 200×g for 5 minutes, the supernatant was removed, and 0.05% Trypsin-EDTA (Thermo Fisher Scientific) was added, followed by incubation at 37° C. for 5 minutes. DMEM (Thermo Fisher Scientific) containing 1% penicillin-streptomycin (Thermo Fisher Scientific) and 10% fetal bovine serum (Thermo Fisher Scientific) was added thereto. After centrifugation at 200×g for 5 minutes, the supernatant was removed. After the removal of the supernatant, Neurobasal-A Medium (Thermo Fisher Scientific) containing 1% penicillin-streptomycin and 2% B-27 (Thermo Fisher Scientific), which was prepared as a DRG nerve culture medium, was added. Then, the cells were dissociated by micropipetting. The dissociated cells were passed through a 70 μm cell strainer (Greiner) and centrifuged at 200×g for 5 minutes. After the centrifugation, the supernatant was removed, and the cells were suspended by the culture medium. This cell suspension was inoculated to a polylysine-coated 35 mm dish (Matsunami Glass Ind., Ltd.) coated in advance with laminin (Sigma-Aldrich), cultured overnight at 37° C. under 5% CO2, and then used in the measurement of change in intracellular calcium concentration.
Cal-520, AM(registered trademark) (AAT Bioquest) was used as a calcium fluorescent dye. The medium was removed from the cells cultured in the dish, and the cells were washed twice with a perfusate. Then, a Cal-520, AM solution adjusted to 4 μmol/L was added thereto, and the cells were cultured at 37° C. for 1 to 1.5 hours under 5% CO2. The perfusate was an aqueous solution containing NaCl (140 mmol/L), KCl (5 mmol/L), CaCl2)·2H2O (1.2 mmol/L), MgCl2.6H2O (2 mmol/L), D(+)-glucose (14 mmol/L) and HEPES (10 mmol/L), adjusted to pH 7.4. Then, the dish was washed by perfusion at 2 mL/min for 10 minutes.
Change in intracellular calcium concentration was measured by analyzing with analytical software, change in fluorescence intensity of the cells loaded with the calcium fluorescent dye in images taken under a confocal laser microscope system (Nikon Instech Co., Ltd.). The laser wavelength was 488 nm, and the images were acquired at intervals of 57 to 60 sheets per minute.
For the induction of neuronal excitation, a treatment with a high potassium solution (hereinafter, “high potassium treatment”) was performed to induce a rise in intracellular calcium concentration by the depolarization of cell membranes. The high potassium treatment and a treatment with the cyclic amine derivative (I) or a pharmacologically acceptable salt thereof (compounds 1 to 10, compound of Comparative Example 1 and compound of Comparative Example 2) (hereinafter, “compound treatment”) of the cells were performed by the perfusion and replacement of a solution. The perfusion rate was controlled to 2 mL/min using a tube pump. […]

The mark [1] stands for this setting: high potassium treatment (KCl 32.5 mmol/L or 30 mmol/L), average of 106 to 262 cells per group.
Setting [2] is: high potassium treatment (KCl 30 mmol/L), average of 60 to 250 cells per group.

SMILES strings stand for the structures. Read-outs that look alike come from different tables or passages of the source.

For the molecule `CCn1ccnc1C(O)CC(=O)N1CCC(N(C)C)CC1` (stereo not shown) [Compound 1, 1-(4-(dimethylamino)piperidin-1-yl)-3-(1-ethyl-1H-imidazol-2-yl)-3-hydroxypropan-1-one], the inhibition at 30 µM under setting [1] came out at 35.5%.

Regarding `CN(C)C1CCN(C(=O)C[C@H](O)c2nccn2C)CC1` [Compound 2, (S)-1-(4-(dimethylamino)piperidin-1-yl)-3-hydroxy-3-(1-methyl-1H-imidazol-2-yl)propan-1-one], under setting [1], the inhibition at 30 µM amounted to 19.3%.

Turning to `CN(C)C1CCN(C(=O)CC(O)c2nccn2CC(F)(F)F)CC1` (stereo not shown) [Compound 3, 1-(4-(dimethylamino)piperidin-1-yl)-3-hydroxy-3-(1-(2,2,2-trifluoroethyl)-1H-imidazol-2-yl)propan-1-one], the inhibition at 30 µM under setting [1] was 17.8%.

On to `CN(C)C1CCN(C(=O)CCc2nccn2C)CC1` [Compound 4, 1-(4-(dimethylamino)piperidin-1-yl)-3-(1-methyl-1H-imidazol-2-yl)propan-1-onesulfatemonohydrate], for which the inhibition at 30 µM under setting [1] stood at 11.9%.

As for `CN(C)[C@@H]1CCCN(C(=O)CC(O)c2nccn2C)C1` (stereo partly shown) [Compound 5], the inhibition at 30 µM under setting [2] turned out to be 39%.

Consider `CN1CCN(C2CCN(C(=O)CC(O)c3nccn3C)CC2)CC1` (stereo not shown) [Compound 6, 3-hydroxy-3-(1-methyl-1H-imidazol-2-yl)-1-(4-(4-methylpipzerazin-1-yl)piperidin-1-yl)propan-1-one], for which the inhibition at 30 µM under setting [2] turned out to be 23.3%.

Regarding `CCCn1ccnc1C(O)CC(=O)N1CCC(N(C)C)CC1` (stereo not shown) [Compound 7, 1-(4-(dimethylamino)piperidin-1-yl)-3-(1-propyl-1H-imidazol-2-yl)-3-hydroxypropan-1-one], the inhibition at 30 µM under setting [2] is 15.4%.

For `CN(C)C1CCN(C(=O)CC(O)c2ncc(Cl)n2C)CC1` (stereo not shown) [Compound 9, 3-(5-chloro-1-methyl-1H-imidazol-2-yl)-1-(4-(dimethylamino)piperidin-1-yl)-3-hydroxypropan-1-one], the inhibition at 30 µM under setting [2] is 7.1%.

As for `CC(C)n1ccnc1C(O)CC(=O)N1CCC(N(C)C)CC1` (stereo not shown) [Compound 10, 1-(4-(dimethylamino)piperidin-1-yl)-3-(1-isopropyl-1H-imidazol-2-yl)-3-hydroxypropan-1-one], under setting [2], the inhibition at 30 µM turned out to be 5.9%.

Turning to `COCCn1ccnc1C(O)CC(=O)N1CCC(N(C)C)CC1` (stereo not shown) [Compound of Comparative Example 1, 1-(4-(dimethylamino)piperidin-1-yl)-3-(1-(2-methoxyethyl)-1H-imidazol-2-yl)-3-hydroxypropan-1-one, reference compound], the “Inhibition of high potassium-induced rise in intracellular calcium concentration, in words” value was “not inhibited”. For the same molecule, the inhibition at 30 µM under setting [2] was -3.3%.

`CN(C)C1CCN(C(=O)CC(O)c2nccn2CCC(F)(F)F)CC1` (stereo not shown) [Compound of Comparative Example 2, 1-(4-(dimethylamino)piperidin-1-yl)-3-(1-(3,3,3-trifluoropropyl)-1H-imidazol-2-yl)-3-hydroxypropan-1-one, reference compound]: the “Inhibition of high potassium-induced rise in intracellular calcium concentration, in words” value is “not inhibited”. Also, the inhibition at 30 µM under setting [2] was -1.1%.

Values taken from patent US11510914B2, “Agent for inhibiting rise in intraneuronal calcium concentration” (Toray Industries, Inc., priority 2018, dated 2022).
